Assay results reported in US20250195528A1, “DOSE REGIMEN OF VICASINABIN” (Hoffmann-La Roche Inc., priority 2022, published 2025).
“Also recorded” adds a separate entry of the source.

Key:
human CB1 = human CB1 (Homo sapiens, UniProt P21554); experiment: Human CB1 cAMP assay; type: cell-based
Text: Inhibition of cAMP accumulation in Chinese hamster ovary cells stably expressing recombinant CB2 was used to determine the functional potency of RO6868847 for different CB2 species and the selectivity over the closely related CB1.

CB2 receptor on B-cells = target: T1, CB2 receptor on B-cells (Homo sapiens, UniProt P34972); experiment: CB2 receptor target engagement on B-cells in blood of participants of Study BP40387; type: in vivo
T1 construct: B cells show a low but robust surface expression of CB2; endogenous in cells; host or cells: B cells in human whole blood (healthy participants, diabetic patients)
Experimental: In the Phase I single ascending dose (SAD) and multiple ascending dose (MAD) study (BP40387), CB2R-TE was measured in blood from healthy participants that received single and multiple 0.75-300 mg doses of RO6868847. Based on clinical RO6868847 pharmacokinetics (PK) and pharmacodynamics (PD; measured by CB2R-TE) data and accounting for the difference between healthy and diabetics subjects, the lower end of the 0.75 mg to 300 mg-dose range is expected to achieve approximately up to half-maximum CB2R-TE, whereas the higher end of that dose range is predicted to achieve maximum CB2R-TE.
In example 2, target engagement of RO6868847 was assessed on circulating B-cells from whole blood samples utilizing a newly developed exploratory flow cytometry assay to monitor RO6868847-induced CB2 receptor internalization on B-cells. […] Upon treatment discontinuation CB2 receptor surface expression returned to baseline approximately within 1 week. Target engagement appeared to reach a plateau at doses of 100 mg RO6868847 with only marginal increases at higher doses of RO6868847. In example 2, pro-inflammatory cytokine production was induced by ex vivo stimulation with LPS in freshly obtained whole blood samples, to measure downstream markers of RO6868847-mediated CB2 receptor internalization and explore its pharmacological profile. Serum levels of TNF-α, G-CSF, IL-1β, and […], of participants in Study BP40387 were assessed to investigate the changes of these cytokines in the presence of repeated dose administration of up to 300 mg RO6868847 once-daily for 14 days. […] It should be noted that the IL1-β analysis was negatively affected by a substantial proportion of baseline data, not being reportable (see FIG. 8), especially at the highest tested doses of 300 mg of RO6868847. Substantial variability in these measurements was observed. However, this was expected and no dedicated predefined statistical analysis was performed since cohort sizes were small for this exploratory assessment.

[1] = system: 15-lipoxygenase, MAGL, diacylglycerol lipase, or FAAH enzymes; experiment: Functional cellular assays, enzymes of the endocannabinoid pathway; type: cell-based; settings: up to 500 μM in human targets
[2] = system: 15-lipoxygenase, MAGL, diacylglycerol lipase, or FAAH enzymes; experiment: as above; type: cell-based; settings: 10 μM in mouse
cynomolgus monkey CB2 = cynomolgus monkey CB2 (Macaca fascicularis, UniProt G7NVV5); experiment: Forskolin-stimulated cAMP inhibition in stably transfected CHO cells; type: cell-based
Text: Inhibition of cAMP accumulation in Chinese hamster ovary cells stably expressing recombinant CB2 was used to determine the functional potency of RO6868847 for different CB2 species and the selectivity over the closely related CB1. […] Table 4 summarizes the potency from different CB2 species.

[3] = Study BP40387 Part 1 (SAD) pharmacokinetics, healthy participants; type: in vivo, human; settings: single and multiple dose, on average
[4] = system: laser-induced neovascularization; type: in vivo, rat
Experimental: Pharmacological studies were performed in vitro and in vivo to investigate the potency, selectivity and activity of RO6868847. Pharmacological effects were determined in vivo in two different diabetic animal models which include the streptozotocin (STZ)-induced rat Type 1 diabetes and genetic Type 2 diabetes mouse models as well as in two acute models with acute inflammatory stimulus (LPS-injections) or laser injury (CNV). Additional in vitro pharmacology studies were performed to explore the pharmacological effect of RO6868847 and the suitability of the assays as biomarkers of target engagement and pharmacodynamic effect (PD) in human whole blood obtained from either healthy volunteers or diabetic patients.
The diversity of the tested models (including acute challenge versus disease-modifying models) and the absence of a recommended nonclinical DME/DR model with proven clinical translatability presents a challenge for the estimation of pharmacologically active exposure in humans.
Exposure was derived from satellite animals or extrapolated from previous PK or PD studies in the same species.
Based on this integrated assessment, the pharmacologically active exposure range observed in rats spans 2 logs, with an upper bound (unbound AUC0-24 [S-epimer]=546 ng·hr/mL) corresponding to the full effect at 10 mg/kg in a rat STZ-induced Type 1 diabetes model and the lower bound (unbound AUC0-24 [S-epimer]=2.8 ng·hr/mL) corresponding to 50% decrease in disease marker (hypoerfluorescence area) in a laser-induced NV rat model.

[5] = parameters: species or system human; settings: in vivo
Text: In Study BP40387, in Part 1, 11 participants (24.4%), Part 2, 1 participant (12.5%), Part 3, 16 participants (40%), Part 4, 12 participants (70.6%) and Part 5, 2 participants (11.1%), had reported at least 1 AE (see Table 22). One participant (5.9%) in Part 4 of the study was withdrawn by the investigator because of AEs. The AEs reported in more than 2 participants in Part 1 was medical device site erythema (6 participants in each PT) and vascular procedure complication (2 participants in each PT), in Part 3 was medical device site erythema (5 participants in each PT), constipation (3 participants in each PT) medical device site papule, medical device site pruritus, vascular procedure complication, headache (each 2 participants), and in Part 4 constipation (2 participants in each PT). […] The event was considered to be related to vicasinabin by the investigator and resolved without sequelae within one week after treatment discontinuation.

T1 sequence (P34972 whole entry): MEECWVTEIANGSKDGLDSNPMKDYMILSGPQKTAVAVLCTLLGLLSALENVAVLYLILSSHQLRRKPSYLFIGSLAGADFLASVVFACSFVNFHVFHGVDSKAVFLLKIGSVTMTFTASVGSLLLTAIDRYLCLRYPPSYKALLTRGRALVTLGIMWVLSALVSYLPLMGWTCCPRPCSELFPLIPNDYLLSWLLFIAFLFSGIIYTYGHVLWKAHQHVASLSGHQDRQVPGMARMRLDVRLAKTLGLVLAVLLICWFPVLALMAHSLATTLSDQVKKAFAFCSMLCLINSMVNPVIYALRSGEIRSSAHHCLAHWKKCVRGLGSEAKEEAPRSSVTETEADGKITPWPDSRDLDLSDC
Sequence of human CB1 (P21554 whole entry): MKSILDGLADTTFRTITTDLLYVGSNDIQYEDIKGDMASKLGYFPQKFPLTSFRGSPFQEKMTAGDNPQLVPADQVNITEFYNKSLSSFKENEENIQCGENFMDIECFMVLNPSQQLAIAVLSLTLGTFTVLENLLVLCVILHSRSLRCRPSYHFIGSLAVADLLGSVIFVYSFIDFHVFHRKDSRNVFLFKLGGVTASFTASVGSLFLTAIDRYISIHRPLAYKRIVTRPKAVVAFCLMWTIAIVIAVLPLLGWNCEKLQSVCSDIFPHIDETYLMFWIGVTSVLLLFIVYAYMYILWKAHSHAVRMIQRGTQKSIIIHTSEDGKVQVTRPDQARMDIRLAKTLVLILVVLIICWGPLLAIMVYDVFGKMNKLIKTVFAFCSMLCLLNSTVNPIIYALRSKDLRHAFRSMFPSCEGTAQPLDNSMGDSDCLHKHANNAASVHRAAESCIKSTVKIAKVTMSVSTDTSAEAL
Sequence of cynomolgus monkey CB2 (G7NVV5 1-360): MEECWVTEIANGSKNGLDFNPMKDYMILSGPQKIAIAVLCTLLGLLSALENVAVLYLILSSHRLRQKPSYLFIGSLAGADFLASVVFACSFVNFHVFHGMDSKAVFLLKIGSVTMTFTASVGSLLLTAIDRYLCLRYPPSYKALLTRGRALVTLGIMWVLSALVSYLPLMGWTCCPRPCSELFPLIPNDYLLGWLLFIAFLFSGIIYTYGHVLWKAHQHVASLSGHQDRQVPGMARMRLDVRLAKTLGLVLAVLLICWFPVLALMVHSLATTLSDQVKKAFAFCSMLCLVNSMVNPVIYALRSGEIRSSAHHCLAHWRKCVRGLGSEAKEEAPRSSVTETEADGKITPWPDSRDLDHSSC

## Cn1nnnc1Cn1nnc2c(N3CC[C@H](O)C3)nc(C(C)(C)C)nc21 [RO6868847, (3S)-1-[5-tert-butyl-3-[(1-methyltetrazol-5-yl)methyl]triazolo[4,5-d]pyrimidin-7-yl]pyrrolidin-3-ol]
Human CB1
  EC50: > 10 µM
  IC50: > 10 µM
Human CB1; CB1 EC50 over CB2 EC50
  CB1/CB2 Ratio (functional selectivity): >3600 fold
Human CB1; highest concentration of 10 μM
  receptor activation or inhibition: no receptor activation or inhibition
CB2 receptor on B-cells; after treatment discontinuation
  time for CB2 receptor surface expression to return to baseline: ≤ 1 week
CB2 receptor on B-cells; multiple dose
  dose at which target engagement reaches a plateau: 100 mg
CB2 receptor on B-cells; single and multiple oral doses up to 300 mg
  CB2 receptor target engagement on B-cells in blood: reversible, dose-dependent and sustained; also recorded: dose-dependent, long-lasting, but reversible
[1]
  activity at endocannabinoid pathway enzymes: no activity
[2]
  activity at endocannabinoid pathway enzymes: no activity
Cynomolgus monkey CB2; CHO cells
  IC50: 0.00106 ± 8e-05 µM
Cynomolgus monkey CB2; CHO, normalized to 10 μM CP55′940
  Emax: 94.6%
[3]
  Renal excretion, share of the dose administered: less than 5%
[4]; rat, at unbound AUC0-24 2.8 ng·hr/mL
  decrease in disease marker (hyperfluorescence area): 50%
[4]; rat, in vivo
  unbound AUC0-24 [S-epimer], lower bound of pharmacologically active exposure: 2.8 ng·hr/mL
[4]; rodent laser injury model
  retinal hyperfluorescence: reduction of retinal hyperfluorescence
[5]; both, human, 14 days
  participants withdrawn because of AEs: 5.9%
[5]
  clinical laboratory parameters, ECGs, vital signs, C-SSRS, VAS, TBNK assay, neurological examinations: No specific concerns
